Source: ChEMBL document CHEMBL5316337, “Critical Role of Position 10 Residue in the Polymyxin Antimicrobial Activity” (J Med Chem, 2023)
Values after ≈ are worked out from the molar mass of the structure shown. Bridge positions count the residues as written; N and C are the ends. Square brackets hold non-standard residues; d marks the D form. Peptide text beside a SMILES is read from it. * marks the point of attachment. X1 = CC[C@H](C)CCCCC(=O)*; Dab = NCC[C@H](N)C(=O)O

Assays:
[1] = tested on: Pseudomonas aeruginosa; experiment: Antibacterial activity against polymyxin-susceptible Pseudomonas aeruginosa ATCC 27853 clinical isolates assessed as reduction in bacterial growth by broth microdilution method; type: functional
[2] = tested on: Pseudomonas aeruginosa; experiment: Antibacterial activity against Carbapenem-resistant Pseudomonas aeruginosa FADD1-PA022 clinical isolates assessed as reduction in bacterial growth by broth microdilution method; type: functional
[3] = tested on: Pseudomonas aeruginosa; experiment: Antibacterial activity against Carbapenem-resistant Pseudomonas aeruginosa FADD1-PA001 clinical isolates assessed as reduction in bacterial growth by broth microdilution method; type: functional
[4] = tested on: Pseudomonas aeruginosa; experiment: Antibacterial activity against polymyxin-susceptible Pseudomonas aeruginosa FADD1-PA038 clinical isolates assessed as reduction in bacterial growth by broth microdilution method; type: functional
[5] = tested on: Pseudomonas aeruginosa; experiment: Antibacterial activity against polymyxin-susceptible Pseudomonas aeruginosa FADD1-PA025 clinical isolates assessed as reduction in bacterial growth by broth microdilution method; type: functional
[6] = tested on: Acinetobacter baumannii; experiment: Antibacterial activity against polymyxin-susceptible Acinetobacter baumannii ATCC 19606 clinical isolates assessed as reduction in bacterial growth by broth microdilution method; type: functional
[7] = tested on: Acinetobacter baumannii; experiment: Antibacterial activity against Carbapenem-resistant Acinetobacter baumannii FADD1-AB034 clinical isolates assessed as reduction in bacterial growth by broth microdilution method; type: functional
[8] = tested on: Acinetobacter baumannii; experiment: Antibacterial activity against polymyxin-susceptible Acinetobacter baumannii ATCC 17978 clinical isolates assessed as reduction in bacterial growth by broth microdilution method; type: functional
[9] = tested on: Acinetobacter baumannii; experiment: Antibacterial activity against Carbapenem-resistant Acinetobacter baumannii FADD1-AB030 clinical isolates assessed as reduction in bacterial growth by broth microdilution method; type: functional
[10] = tested on: Klebsiella pneumoniae; experiment: Antibacterial activity against Carbapenem-resistant Klebsiella pneumoniae FADD1-KP032 clinical isolates assessed as reduction in bacterial growth by broth microdilution method; type: functional
[11] = tested on: Klebsiella pneumoniae; experiment: Antibacterial activity against Carbapenem-resistant Klebsiella pneumoniae FADD1-KP022 clinical isolates assessed as reduction in bacterial growth by broth microdilution method; type: functional
[12] = tested on: Klebsiella pneumoniae; experiment: Antibacterial activity against Carbapenem-resistant Klebsiella pneumoniae BM1 clinical isolates assessed as reduction in bacterial growth by broth microdilution method; type: functional
[13] = tested on: Klebsiella pneumoniae; experiment: Antibacterial activity against polymyxin-susceptible Klebsiella pneumoniae ATCC 700721 clinical isolates assessed as reduction in bacterial growth by broth microdilution method; type: functional
[14] = tested on: Klebsiella pneumoniae; experiment: Antibacterial activity against Carbapenem-resistant Klebsiella pneumoniae FADD1-KP065 clinical isolates assessed as reduction in bacterial growth by broth microdilution method; type: functional
[15] = tested on: Enterobacter cloacae; experiment: Antibacterial activity against polymyxin-susceptible Enterobacter cloacae FADD1-EC006 clinical isolates assessed as reduction in bacterial growth by broth microdilution method; type: functional
[16] = tested on: Enterobacter cloacae; experiment: Antibacterial activity against polymyxin-susceptible Enterobacter cloacae FADD1-EC001 clinical isolates assessed as reduction in bacterial growth by broth microdilution method; type: functional
[17] = tested on: Enterobacter cloacae; experiment: Antibacterial activity against polymyxin-susceptible Enterobacter cloacae FADD1-EC003 clinical isolates assessed as reduction in bacterial growth by broth microdilution method; type: functional
[18] = Acute toxicity in Swiss mouse assessed as maximum tolerated dose administered intravenously measured over 24 hrs; conditions: in vivo, route iv
[19] = Nephrotoxicity in Swiss mouse assessed as histopathological changes in kidney by measuring semiquantitative score at 12 mg/kg, sc administered as free base every 2 hrs for 6 doses and measured at 20 hrs; type: toxicity, organism-based; conditions: in vivo

Row | SMILES | MIC [1] [µg/mL] | MIC [2] [µg/mL] | MIC [3] [µg/mL] | MIC [4] [µg/mL] | MIC [5] [µg/mL] | MIC [6] [µg/mL] | MIC [7] [µg/mL] | MIC [8] [µg/mL] | MIC [9] [µg/mL] | MIC [10] [µg/mL] | MIC [11] [µg/mL] | MIC [12] [µg/mL] | MIC [13] [µg/mL] | MIC [14] [µg/mL] | MIC [15] [µg/mL] | MIC [16] [µg/mL] | MIC [17] [µg/mL] | MTD at 24 h [18] [mg/kg] | Activity [19]
1 | CC[C@H](C)CCCCC(=O)N[C@@H](CCN)C(=O)N[C@H](C(=O)N[C@@H](CCN)C(=O)N[C@H]1CCNC(=O)[C@H]([C@@H](C)O)NC(=O)[C@H](CCN)NC(=O)[C@H](CCN)NC(=O)[C@H](CC(C)C)NC(=O)[C@@H](Cc2ccccc2)NC(=O)[C@H](CCN)NC1=O)[C@@H](C)O | 1 (≈ 0.831 µM) | 2 (≈ 1.66 µM) | 2 (≈ 1.66 µM) | 4 (≈ 3.32 µM) | 4 (≈ 3.32 µM) | 1 (≈ 0.831 µM) | 1 (≈ 0.831 µM) | 1 (≈ 0.831 µM) | 1 (≈ 0.831 µM) | 0.25 (≈ 0.208 µM) | 0.25 (≈ 0.208 µM) | 0.5 (≈ 0.415 µM) | 1 (≈ 0.831 µM) | 0.5 (≈ 0.415 µM) | 0.5 (≈ 0.415 µM) | 0.5 (≈ 0.415 µM) | 0.5 (≈ 0.415 µM) | 4 | –
2 | CC[C@H](C)CCCCC(=O)N[C@@H](CCN)C(=O)N[C@H](C(=O)N[C@@H](CCN)C(=O)N[C@H]1CCNC(=O)[C@H](C)NC(=O)[C@H](CCN)NC(=O)[C@H](CCN)NC(=O)[C@H](CC(C)C)NC(=O)[C@@H](Cc2ccccc2)NC(=O)[C@H](CCN)NC1=O)[C@@H](C)O | 1 (≈ 0.852 µM) | 1 (≈ 0.852 µM) | 1 (≈ 0.852 µM) | 8 (≈ 6.82 µM) | 1 (≈ 0.852 µM) | 1 (≈ 0.852 µM) | 1 (≈ 0.852 µM) | 1 (≈ 0.852 µM) | 1 (≈ 0.852 µM) | 1 (≈ 0.852 µM) | 0.5 (≈ 0.426 µM) | 2 (≈ 1.7 µM) | 4 (≈ 3.41 µM) | 0.5 (≈ 0.426 µM) | 4 (≈ 3.41 µM) | 2 (≈ 1.7 µM) | 1 (≈ 0.852 µM) | 2.7 | 0
3 | CC[C@H](C)CCCCC(=O)N[C@@H](CCN)C(=O)N[C@H](C(=O)N[C@@H](CCN)C(=O)N[C@H]1CCNC(=O)[C@H]([C@H](C)O)NC(=O)[C@H](CCN)NC(=O)[C@H](CCN)NC(=O)[C@H](CC(C)C)NC(=O)[C@@H](Cc2ccccc2)NC(=O)[C@H](CCN)NC1=O)[C@@H](C)O | 1 (≈ 0.831 µM) | 1 (≈ 0.831 µM) | 1 (≈ 0.831 µM) | 4 (≈ 3.32 µM) | 2 (≈ 1.66 µM) | 8 (≈ 6.65 µM) | 2 (≈ 1.66 µM) | 4 (≈ 3.32 µM) | 2 (≈ 1.66 µM) | 2 (≈ 1.66 µM) | 0.25 (≈ 0.208 µM) | 1 (≈ 0.831 µM) | 1 (≈ 0.831 µM) | 0.5 (≈ 0.415 µM) | 8 (≈ 6.65 µM) | 2 (≈ 1.66 µM) | 1 (≈ 0.831 µM) | 4.1 | 0
4 | CC[C@H](C)CCCCC(=O)N[C@@H](CCN)C(=O)N[C@H](C(=O)N[C@@H](CCN)C(=O)N[C@H]1CCNC(=O)[C@H](CO)NC(=O)[C@H](CCN)NC(=O)[C@H](CCN)NC(=O)[C@H](CC(C)C)NC(=O)[C@@H](Cc2ccccc2)NC(=O)[C@H](CCN)NC1=O)[C@@H](C)O | 0.5 (≈ 0.42 µM) | 0.5 (≈ 0.42 µM) | 0.5 (≈ 0.42 µM) | 1 (≈ 0.841 µM) | 2 (≈ 1.68 µM) | 2 (≈ 1.68 µM) | 1 (≈ 0.841 µM) | 1 (≈ 0.841 µM) | 1 (≈ 0.841 µM) | 0.25 (≈ 0.21 µM) | < 0.125 | 0.25 (≈ 0.21 µM) | 0.5 (≈ 0.42 µM) | 0.25 (≈ 0.21 µM) | 0.5 (≈ 0.42 µM) | 0.5 (≈ 0.42 µM) | 0.25 (≈ 0.21 µM) | 4.1 | –
5 | CC[C@H](C)CCCCC(=O)N[C@@H](CCN)C(=O)N[C@H](C(=O)N[C@@H](CCN)C(=O)N[C@H]1CCNC(=O)[C@H](CC)NC(=O)[C@H](CCN)NC(=O)[C@H](CCN)NC(=O)[C@H](CC(C)C)NC(=O)[C@@H](Cc2ccccc2)NC(=O)[C@H](CCN)NC1=O)[C@@H](C)O | 1 (≈ 0.842 µM) | 1 (≈ 0.842 µM) | 1 (≈ 0.842 µM) | 2 (≈ 1.68 µM) | 1 (≈ 0.842 µM) | 2 (≈ 1.68 µM) | 2 (≈ 1.68 µM) | 2 (≈ 1.68 µM) | 1 (≈ 0.842 µM) | 1 (≈ 0.842 µM) | 0.25 (≈ 0.211 µM) | 0.5 (≈ 0.421 µM) | 4 (≈ 3.37 µM) | 0.5 (≈ 0.421 µM) | 4 (≈ 3.37 µM) | 2 (≈ 1.68 µM) | 1 (≈ 0.842 µM) | 4.1 | 0
6 | CCC[C@@H]1NC(=O)[C@H](CCN)NC(=O)[C@H](CCN)NC(=O)[C@H](CC(C)C)NC(=O)[C@@H](Cc2ccccc2)NC(=O)[C@H](CCN)NC(=O)[C@@H](NC(=O)[C@H](CCN)NC(=O)[C@@H](NC(=O)[C@H](CCN)NC(=O)CCCC[C@@H](C)CC)[C@@H](C)O)CCNC1=O | 1 (≈ 0.832 µM) | 1 (≈ 0.832 µM) | 1 (≈ 0.832 µM) | 2 (≈ 1.66 µM) | 2 (≈ 1.66 µM) | 4 (≈ 3.33 µM) | 4 (≈ 3.33 µM) | 4 (≈ 3.33 µM) | 0.5 (≈ 0.416 µM) | 1 (≈ 0.832 µM) | 0.5 (≈ 0.416 µM) | 1 (≈ 0.832 µM) | 2 (≈ 1.66 µM) | 0.5 (≈ 0.416 µM) | 2 (≈ 1.66 µM) | 2 (≈ 1.66 µM) | 2 (≈ 1.66 µM) | 4.1 | 0
7 | CC[C@H](C)CCCCC(=O)N[C@@H](CCN)C(=O)N[C@H](C(=O)N[C@@H](CCN)C(=O)N[C@H]1CCNC(=O)[C@H](CC(C)C)NC(=O)[C@H](CCN)NC(=O)[C@H](CCN)NC(=O)[C@H](CC(C)C)NC(=O)[C@@H](Cc2ccccc2)NC(=O)[C@H](CCN)NC1=O)[C@@H](C)O (X1-[Dab]T[Dab][Dab][Dab][dF]L[Dab][Dab]L; lactam 4-C) | 2 (≈ 1.65 µM) | 1 (≈ 0.823 µM) | 1 (≈ 0.823 µM) | 2 (≈ 1.65 µM) | 2 (≈ 1.65 µM) | 16 (≈ 13.2 µM) | 8 (≈ 6.58 µM) | 2 (≈ 1.65 µM) | 1 (≈ 0.823 µM) | 4 (≈ 3.29 µM) | 0.25 (≈ 0.206 µM) | 2 (≈ 1.65 µM) | 4 (≈ 3.29 µM) | 0.5 (≈ 0.411 µM) | 4 (≈ 3.29 µM) | 2 (≈ 1.65 µM) | 4 (≈ 3.29 µM) | 6.1 | –
